What was measured:
DGKα = DGKα (Homo sapiens (Human), UniProt P23743); assay: In vitro DGKα inhibition assay (ADP-Glo); assay type: biochemical; details: His-tagged human recombinant enzyme, 0.1 nM DGKα, 50 μM ATP, 20 μM DLG, 90 minute incubation
In short: (§1)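 His-tagged human DGKα (0.1 nM, 50 μM ATP) or DGKζ (0.4 nM, 30 μM ATP), each with 20 μM DLG, in Tris pH 7.5 buffer with CHAPS, Mg2+, Ca2+.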

DGKζ = DGKζ (Homo sapiens (Human), UniProt Q13574); assay: In vitro DGKζ inhibition assay (ADP-Glo); assay type: biochemical; details: His-tagged human recombinant enzyme, 0.4 nM DGK, 30 μM ATP, 20 μM DLG, 90 minute incubation
In short: as §1

Sequence of DGKζ (Q13574 whole entry): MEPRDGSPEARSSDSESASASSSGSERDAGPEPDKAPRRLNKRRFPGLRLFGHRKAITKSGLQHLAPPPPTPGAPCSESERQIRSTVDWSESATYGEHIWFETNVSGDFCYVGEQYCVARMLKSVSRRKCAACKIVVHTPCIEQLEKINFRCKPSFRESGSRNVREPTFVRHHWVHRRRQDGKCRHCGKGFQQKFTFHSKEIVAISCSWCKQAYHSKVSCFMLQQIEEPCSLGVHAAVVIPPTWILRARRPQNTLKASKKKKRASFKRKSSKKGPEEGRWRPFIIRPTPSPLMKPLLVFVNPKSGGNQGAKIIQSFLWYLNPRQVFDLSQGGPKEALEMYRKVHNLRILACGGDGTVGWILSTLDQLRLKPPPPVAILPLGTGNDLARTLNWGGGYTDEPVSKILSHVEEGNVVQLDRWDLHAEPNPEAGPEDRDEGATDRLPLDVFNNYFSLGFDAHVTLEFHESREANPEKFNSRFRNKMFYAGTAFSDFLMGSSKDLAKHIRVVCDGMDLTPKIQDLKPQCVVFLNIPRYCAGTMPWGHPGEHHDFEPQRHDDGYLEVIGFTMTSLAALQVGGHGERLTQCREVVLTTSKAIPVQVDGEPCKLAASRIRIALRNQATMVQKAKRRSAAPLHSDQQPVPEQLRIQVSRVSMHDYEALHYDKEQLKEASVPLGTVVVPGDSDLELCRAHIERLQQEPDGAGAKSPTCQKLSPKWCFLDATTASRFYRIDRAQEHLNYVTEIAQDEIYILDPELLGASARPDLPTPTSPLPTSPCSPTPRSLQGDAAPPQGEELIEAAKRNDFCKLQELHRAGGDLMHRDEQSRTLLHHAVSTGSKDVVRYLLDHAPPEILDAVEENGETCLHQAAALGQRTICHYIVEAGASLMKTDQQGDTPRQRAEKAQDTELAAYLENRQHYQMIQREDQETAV
Sequence of DGKα (P23743 whole entry): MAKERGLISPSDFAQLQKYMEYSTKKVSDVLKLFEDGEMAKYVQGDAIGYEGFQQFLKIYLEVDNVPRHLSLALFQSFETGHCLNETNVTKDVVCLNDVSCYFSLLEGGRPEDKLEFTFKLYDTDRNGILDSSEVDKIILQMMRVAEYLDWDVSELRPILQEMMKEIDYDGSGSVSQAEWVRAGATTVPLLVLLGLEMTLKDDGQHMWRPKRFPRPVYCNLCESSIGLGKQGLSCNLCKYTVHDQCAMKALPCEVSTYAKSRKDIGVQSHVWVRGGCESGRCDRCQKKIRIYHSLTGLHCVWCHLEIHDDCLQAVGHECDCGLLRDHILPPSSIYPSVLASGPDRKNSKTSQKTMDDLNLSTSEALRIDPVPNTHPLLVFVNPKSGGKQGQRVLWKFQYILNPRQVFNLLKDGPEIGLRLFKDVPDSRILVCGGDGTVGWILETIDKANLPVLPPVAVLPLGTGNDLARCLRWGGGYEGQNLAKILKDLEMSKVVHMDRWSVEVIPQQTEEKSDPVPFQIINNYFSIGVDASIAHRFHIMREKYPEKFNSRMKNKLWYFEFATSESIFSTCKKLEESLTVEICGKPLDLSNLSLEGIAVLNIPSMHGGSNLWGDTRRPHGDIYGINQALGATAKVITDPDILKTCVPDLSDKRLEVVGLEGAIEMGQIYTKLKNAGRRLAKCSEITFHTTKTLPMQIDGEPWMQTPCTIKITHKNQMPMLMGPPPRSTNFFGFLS

SMILES	IC50 (DGKα) [nM]	IC50 (DGKζ) [nM]
Cc1nc2c(N3C[C@@H](C)N(C(c4ccc(F)c(C(F)F)c4)C4CC(F)(F)C4)C[C@@H]3C)nc3nncn3c2n1C[C@@H]1CCCO1 (stereo partly drawn) [Example 54, 4-((2S,5R)-4-((3,3-Difluorocyclobutyl)(3-(difluoromethyl)-4-fluorophenyl)methyl)-2,5-dimethylpiperazin-1-yl)-2-methyl-1-(((S)-tetrahydrofuran-2-yl)methyl)-1H-[1,2,4]triazolo[3,4-b]purine]	≤ 20	≤ 20
Cc1nc2c(N3C[C@@H](C)N([C@@H](c4ccc(Cl)cc4)C(C)C)C[C@@H]3C)nc3nncn3c2n1C[C@@H]1CCCO1 [Example 89, 4-((2S,5R)-4-((R)-1-(4-chlorophenyl)-2-methylpropyl)-2,5-dimethylpiperazin-1-yl)-2-methyl-1-(((S)-tetrahydrofuran-2-yl)methyl)-1H-[1,2,4]triazolo[3,4-b]purine]	≤ 20	≤ 20
C[C@@H]1CN(c2nc3nncn3c3c2ncn3CCN(C)C)[C@@H](C)CN1C(c1ccc(Br)cc1)c1ccc(Br)cc1 [Example 109, 2-(4-((2S,5R)-4-(Bis(4-bromophenyl)methyl)-2,5-dimethylpiperazin-1-yl)-1H-[1,2,4]triazolo[3,4-b]purin-1-yl)-N,N-dimethylethan-1-amine]	≤ 20	≤ 20
Cc1nc2c(N3C[C@@H](C)N([C@H](c4ccc(Cl)cc4)C(C)C)C[C@@H]3C)nc3nncn3c2n1C[C@@H]1CCCO1 [Example 88, 4-((2S,5R)-4-((S)-1-(4-Chlorophenyl)-2-methylpropyl)-2,5-dimethylpiperazin-1-yl)-2-methyl-1-(((S)-tetrahydrofuran-2-yl)methyl)-1H-[1,2,4]triazolo[3,4-b]purine]	≤ 20	≤ 20
C[C@@H]1CN(c2nc3nncn3c3c2ncn3C[C@@H]2CCCO2)[C@@H](C)CN1[C@H](c1ccc(F)cc1)c1ccc(OC(F)(F)F)cn1 [Example 27, 4-((2S,5R)-4-((R)-(4-fluorophenyl)(5-(trifluoromethoxy)pyridin-2-yl)methyl)-2,5-dimethylpiperazin-1-yl)-1-(((S)-tetrahydrofuran-2-yl)methyl)-1H-[1,2,4]triazolo[3,4-b]purine]	≤ 20	≤ 20
Cc1nc2c(N3C[C@@H](C)N(C(c4ccc(Cl)c(F)c4)C4CC(F)(F)C4)C[C@@H]3C)nc3nncn3c2n1C[C@@H]1CCCO1 (single isomer, unassigned) [Example 50]	≤ 20	≤ 20
C[C@@H]1CN(c2nc3nncn3c3sc(CCC#N)nc23)[C@@H](C)CN1C(c1ccc(F)cc1)c1ccc(F)cc1 [Example 4, 3-(4-((2S,5R)-4-(Bis(4-fluorophenyl)methyl)-2,5-dimethylpiperazin-1-yl)thiazolo[4,5-e][1,2,4]triazolo[4,3-a]pyrimidin-2-yl)propanenitrile]	≤ 20	200 to 2000
COc1cccc([C@H](C(C)C)N2C[C@H](C)N(c3nc4nncn4c4c3nc(C)n4C[C@@H]3CCCO3)C[C@H]2C)c1 [Example 98, 4-((2S,5R)-4-((S)-1-(3-Methoxyphenyl)-2-methylpropyl)-2,5-dimethylpiperazin-1-yl)-2-methyl-1-(((S)-tetrahydrofuran-2-yl)methyl)-1H-[1,2,4]triazolo[3,4-b]purine]	≤ 20	≤ 20
C[C@@H]1CN(c2nc3nncn3c3c2nnn3C[C@H]2CCCO2)[C@@H](C)CN1C(c1ccc(Br)cc1)c1ccc(Br)cc1 [Example 110, 4-((2S,5R)-4-(Bis(4-bromophenyl)methyl)-2,5-dimethylpiperazin-1-yl)-1-(((R)-tetrahydrofuran-2-yl)methyl)-1H-[1,2,3]triazolo[4,5-e][1,2,4]triazolo[4,3-a]pyrimidine]	≤ 20	≤ 20
Cc1nc2c(N3C[C@@H](C)N([C@@H](c4cccc(F)c4)C(C)C)C[C@@H]3C)nc3nncn3c2n1C[C@@H]1CCCO1 [Example 95, 4-((2S,5R)-4-((R)-1-(3-fluorophenyl)-2-methylpropyl)-2,5-dimethylpiperazin-1-yl)-2-methyl-1-(((S)-tetrahydrofuran-2-yl)methyl)-1H-[1,2,4]triazolo[3,4-b]purine]	≤ 20	≤ 20
C[C@@H]1CN(c2nc3nncn3c3c2nnn3C[C@H]2CCCO2)[C@@H](C)CN1C(c1ccc(Cl)cc1)c1ccc(Cl)cc1 [Example 106, 4-((2S,5R)-4-(Bis(4-chlorophenyl)methyl)-2,5-dimethylpiperazin-1-yl)-1-(((R)-tetrahydrofuran-2-yl)methyl)-1H-[1,2,3]triazolo[4,5-e][1,2,4]triazolo[4,3-a]pyrimidine]	≤ 20	≤ 20
Cc1cc(C(C2CC(F)(F)C2)N2C[C@H](C)N(c3nc4nncn4c4c3nc(C)n4C[C@@H]3CCCO3)C[C@H]2C)ccc1Cl (stereo partly drawn) [Example 51, 4-((2S,5R)-4-((4-Chloro-3-methylphenyl)(3,3-difluorocyclobutyl)methyl)-2,5-dimethylpiperazin-1-yl)-2-methyl-1-(((S)-tetrahydrofuran-2-yl)methyl)-1H-[1,2,4]triazolo[3,4-b]purine]	≤ 20	≤ 20
Cc1nc2c(N3C[C@@H](C)N(C(c4cc(F)ccc4F)C4CC(F)(F)C4)C[C@@H]3C)nc3nncn3c2n1C[C@@H]1CCCO1 (stereo partly drawn) [Example 53, 4-((2S,5R)-4-((3,3-Difluorocyclobutyl)(2,5-difluorophenyl)methyl)-2,5-dimethylpiperazin-1-yl)-2-methyl-1-(((S)-tetrahydrofuran-2-yl)methyl)-1H-[1,2,4]triazolo[3,4-b]purine]	≤ 20	≤ 20

Results, then the compound that gave them:

IC50 (DGKα) [nM]	IC50 (DGKζ) [nM]	SMILES
≤ 20	≤ 20	Cc1nc2c(N3C[C@@H](C)N([C@@H](c4cccc(Cl)c4)C(C)C)C[C@@H]3C)nc3nncn3c2n1C[C@@H]1CCCO1 [Example 97, 4-((2S,5R)-4-((R)-1-(3-chlorophenyl)-2-methylpropyl)-2,5-dimethylpiperazin-1-yl)-2-methyl-1-(((S)-tetrahydrofuran-2-yl)methyl)-1H-[1,2,4]triazolo[3,4-b]purine]
≤ 20	≤ 20	C[C@@H]1CN(c2nc3nncn3c3c2ncn3CCN(C)C)[C@@H](C)CN1C(c1ccc(F)c(Cl)c1)[C@H]1C[C@H](C(F)(F)F)C1 (stereo partly drawn) [Example 114, 2-(4-((2S,5R)-4-((3-chloro-4-fluorophenyl)((trans)-3-(trifluoromethyl)cyclobutyl)methyl)-2,5-dimethylpiperazin-1-yl)-1H-[1,2,4]triazolo[3,4-b]purin-1-yl)-N,N-dimethylethan-1-amine]
≤ 20	≤ 20	CC[C@@H]1CN(c2nc3nncn3c3c2nc(C)n3C[C@@H]2CCCO2)[C@@H](C)CN1[C@H](c1ccc(C(F)(F)F)cc1)C(C)C [Example 128, 4-((2S,5R)-5-Ethyl-2-methyl-4-((S)-2-methyl-1-(4-(trifluoromethyl)phenyl)propyl)piperazin-1-yl)-2-methyl-1-(((S)-tetrahydrofuran-2-yl)methyl)-1H-[1,2,4]triazolo[3,4-b]purine]
≤ 20	≤ 20	C[C@@H]1CN(c2nc3nncn3c3c2ncn3CC2CC2)[C@@H](C)CN1[C@@H](c1ccc(F)cc1)c1ccc(OC(F)(F)F)cn1 [Example 24, 1-(Cyclopropylmethyl)-4-((2S,5R)-4-((S)-(4-fluorophenyl)(5-(trifluoromethoxy)pyridin-2-yl)methyl)-2,5-dimethylpiperazin-1-yl)-1H-[1,2,4]triazolo[3,4-b]purine]
≤ 20	≤ 20	CC(C)[C@@H](c1ccc(Cl)cc1)N1C[C@H](C)N(c2nc3nncn3c3c2ncn3CCN(C)C)C[C@H]1C [Example 90, 2-(4-((2S,5R)-4-((S)-1-(4-Chlorophenyl)-2-methylpropyl)-2,5-dimethylpiperazin-1-yl)-1H-[1,2,4]triazolo[3,4-b]purin-1-yl)-N,N-dimethylethan-1-amine]
20 to 200	≤ 20	C[C@H]1CN(C(c2ccc(F)cc2)c2ccc(F)cc2)[C@H](CC#N)CN1c1nc2nnc(C3CC3)n2c2scnc12 [Example 15, 2-((2R,5S)-1-(Bis(4-fluorophenyl)methyl)-4-(8-cyclopropylthiazolo[4,5-e][1,2,4]triazolo[4,3-a]pyrimidin-4-yl)-5-methylpiperazin-2-yl)acetonitrile]
≤ 20	≤ 20	CC[C@@H]1CN(c2nc3nncn3c3c2ncn3CCN(C)C)[C@@H](C)CN1C(c1ccc(F)cc1)c1ccc(F)cc1 [Example 37, 2-(4-((2S,5R)-4-(Bis(4-fluorophenyl)methyl)-5-ethyl-2-methylpiperazin-1-yl)-1H-[1,2,4]triazolo[3,4-b]purin-1-yl)-N,N-dimethylethan-1-amine]
≤ 20	200 to 2000	C[C@@H]1CN(c2nc3nncn3c3sc(C(F)F)nc23)[C@@H](C)CN1C(c1ccc(F)cc1)c1ccc(F)cc1 [Example 3, 4-((2S,5R)-4-(Bis(4-fluorophenyl)methyl)-2,5-dimethylpiperazin-1-yl)-2-(difluoromethyl)thiazolo[4,5-e][1,2,4]triazolo[4,3-a]pyrimidine]
≤ 20	≤ 20	CC[C@@H]1CN(c2nc3nncn3c3c2ncn3CCN(C)C)[C@@H](C)CN1C(c1ccc(Cl)cc1)C1CC(F)(F)C1 (stereo partly drawn) [Example 66, 2-(4-((2S,5R)-4-((4-Chlorophenyl)(3,3-difluorocyclobutyl)methyl)-5-ethyl-2-methylpiperazin-1-yl)-1H-[1,2,4]triazolo[3,4-b]purin-1-yl)-N,N-dimethylethan-1-amine]
≤ 20	≤ 20	CC[C@@H]1CN(c2nc3nncn3c3c2nc(C)n3C[C@@H]2CCCO2)[C@@H](C)CN1[C@H](c1ccc(OC(F)F)cc1)C(C)C [Example 126, 4-((2S,5R)-4-((S)-1-(4-(Difluoromethoxy)phenyl)-2-methylpropyl)-5-ethyl-2-methylpiperazin-1-yl)-2-methyl-1-(((S)-tetrahydrofuran-2-yl)methyl)-1H-[1,2,4]triazolo[3,4-b]purine]

Reference: patent US20230399342A1 (Incyte Corporation, priority 2022, published 2023)
